# Earlier results in PubChem BioAssay AID1259409 (Chemical Carcinogenesis Research Information System (CCRIS), 2018).
# Tested on: rodent chemically induced tumor inhibition, incidence and multiplicity
# Assay: CCRIS tumor inhibitor studies
# Conditions: Dose [Inhibitor]: 0, Route [Inhibitor]: ORAL, Species: RAT
smiles,measurement,setting,value
CSC[C@H](N)C(=O)O,"tumour outcome (control, treated, inhibition, significance)","Carcinogen: 7,12-DIMETHYLBENZ[A]ANTHRACENE, 57-97-6, 0.005 MOL/KG DIET BEGINNING 2 WK PRIOR TO CARCINOGEN AND CONTINUED FOR STUDY DURATION (STUDY DURATION: 25 WK), Strain/Sex: CD-1/FEMALE, Target Tissue: Type of Lesion: MAMMARY GLAND: ADENOCARCINOMA, Dose [Carcinogen]: 10 MG ONCE, Promoter: NONE USED","22/25 (88%), 19/25 (76%), 14%, not significant"
same,"tumour outcome (control, treated, inhibition, significance)","Carcinogen: 7,12-DIMETHYLBENZ[A]ANTHRACENE, 57-97-6, 0.015 MOL/KG DIET BEGINNING 1 WK POST CARCINOGEN AND CONTINUED FOR STUDY DURATION (STUDY DURATION: 25 WK), Strain/Sex: CD-1/FEMALE, Target Tissue: Type of Lesion: MAMMARY GLAND: ADENOCARCINOMA, Dose [Carcinogen]: 10 MG ONCE, Promoter: NONE USED","23/30 (77%), 14/30 (47%), 39%, p<0.05"
same,"tumour outcome (control, treated, inhibition, significance)","Carcinogen: 7,12-DIMETHYLBENZ[A]ANTHRACENE, 57-97-6, 0.015 MOL/KG DIET BEGINNING 2 WK PRIOR TO CARCINOGEN AND CONTINUED 1 WK POST CARCINOGEN (STUDY DURATION: 25 WK), Strain/Sex: CD-1/FEMALE, Target Tissue: Type of Lesion: MAMMARY GLAND: ADENOCARCINOMA, Dose [Carcinogen]: 10 MG ONCE, Promoter: NONE USED","23/30 (77%), 21/30 (70%), 9%, not significant"
same,"tumour outcome (control, treated, inhibition, significance)","Carcinogen: 7,12-DIMETHYLBENZ[A]ANTHRACENE, 57-97-6, 0.015 MOL/KG DIET BEGINNING 2 WK PRIOR TO CARCINOGEN AND CONTINUED FOR STUDY DURATION (STUDY DURATION: 25 WK), Strain/Sex: CD-1/FEMALE, Target Tissue: Type of Lesion: MAMMARY GLAND: ADENOCARCINOMA, Dose [Carcinogen]: 10 MG ONCE, Promoter: NONE USED","22/25 (88%), 13/25 (52%), 41%, p<0.05"
CSS(C)(=O)=O,"tumour outcome (control, treated, inhibition, significance)","Carcinogen: AZOXYMETHANE, 25843-45-2, 20 PPM IN DIET FOR 32 WK BEGINNING 1 WK POST CARCINOGEN TREATMENT (STUDY DURATION: 36 WK), Strain/Sex: (30,30)/(30,24), Target Tissue: Type of Lesion: SMALL INTESTINE: ADENOMA OR ADENOCARCINOMA, Dose [Carcinogen]: 15 MG/KG BW 1/WK FOR 3 WK, Promoter: NONE USED","4/30 (13%), 1/24 (4%), 69%, not significant"
same,"tumour outcome (control, treated, inhibition, significance)","Carcinogen: AZOXYMETHANE, 25843-45-2, 20 PPM IN DIET FOR 32 WK BEGINNING 1 WK POST CARCINOGEN TREATMENT (STUDY DURATION: 36 WK), Strain/Sex: F344/MALE, Target Tissue: Type of Lesion: LARGE INTESTINE: ADENOMA OR ADENOCARCINOMA, Dose [Carcinogen]: 15 MG/KG BW 1/WK FOR 3 WK, Promoter: NONE USED","17/30 (57%), 9/24 (38%), 33%, not significant"
same,"tumour outcome (control, treated, inhibition, significance)","Carcinogen: AZOXYMETHANE, 25843-45-2, 100 PPM IN DIET FOR 32 WK BEGINNING 1 WK POST CARCINOGEN TREATMENT (STUDY DURATION: 36 WK), Strain/Sex: F344/MALE, Target Tissue: Type of Lesion: LARGE INTESTINE: ADENOMA OR ADENOCARCINOMA, Dose [Carcinogen]: 15 MG/KG BW 1/WK FOR 3 WK, Promoter: NONE USED","17/30 (57%), 2/28 (7%), 88%, p<0.0001"
same,"tumour outcome (control, treated, inhibition, significance)","Carcinogen: AZOXYMETHANE, 25843-45-2, 100 PPM IN DIET FOR 32 WK BEGINNING 1 WK POST CARCINOGEN TREATMENT (STUDY DURATION: 36 WK), Strain/Sex: F344/MALE, Target Tissue: Type of Lesion: SMALL INTESTINE: ADENOMA OR ADENOCARCINOMA, Dose [Carcinogen]: 15 MG/KG BW 1/WK FOR 3 WK, Promoter: NONE USED","4/30 (13%), 4/28 (14%), -7%, not significant"
same,"tumour outcome (control, treated, inhibition, significance)","Carcinogen: DIETHYLNITROSAMINE, 55-18-5, 100 PPM IN DIET FOR 4 WK BEGINNING 1 WK PRIOR TO CARCINOGEN TREATMENT (STUDY DURATION: 24 WK), Strain/Sex: F344/MALE, Target Tissue: Type of Lesion: LIVER: HEPATOCELLULAR ADENOMA, Dose [Carcinogen]: 100 MG/KG BW 1/WK FOR 3 WK, Promoter: PHENOBARBITAL, 50-06-6","95%, 89%, 6%, not significant"
same,"tumour outcome (control, treated, inhibition, significance)","Carcinogen: DIETHYLNITROSAMINE, 55-18-5, 100 PPM IN DIET FOR 4 WK BEGINNING 1 WK PRIOR TO CARCINOGEN TREATMENT (STUDY DURATION: 24 WK), Strain/Sex: F344/MALE, Target Tissue: Type of Lesion: LIVER: HEPATOCELLULAR CARCINOMA, Dose [Carcinogen]: 100 MG/KG BW 1/WK FOR 3 WK, Promoter: PHENOBARBITAL, 50-06-6","70%, 89%, -27%, not significant"
same,"tumour outcome (control, treated, inhibition, significance)","Carcinogen: DIETHYLNITROSAMINE, 55-18-5, 100 PPM IN DIET FOR 20 WK BEGINNING 1 WK POST CARCINOGEN TREATMENT (STUDY DURATION: 24 WK), Strain/Sex: F344/MALE, Target Tissue: Type of Lesion: LIVER: HEPATOCELLULAR ADENOMA, Dose [Carcinogen]: 100 MG/KG BW 1/WK FOR 3 WK, Promoter: PHENOBARBITAL, 50-06-6","95%, 55%, 42%, p<0.005"
same,"tumour outcome (control, treated, inhibition, significance)","Carcinogen: DIETHYLNITROSAMINE, 55-18-5, 100 PPM IN DIET FOR 20 WK BEGINNING 1 WK POST CARCINOGEN TREATMENT (STUDY DURATION: 24 WK), Strain/Sex: F344/MALE, Target Tissue: Type of Lesion: LIVER: HEPATOCELLULAR CARCINOMA, Dose [Carcinogen]: 100 MG/KG BW 1/WK FOR 3 WK, Promoter: PHENOBARBITAL, 50-06-6","70%, 81%, -16%, not significant"
N,"tumour outcome (control, treated, inhibition, significance)","Carcinogen: N-BUTYL-N-(4-HYDROXYBUTYL)NITROSAMINE, 3817-11-6, 1% IN DRINKING WATER FOR 31 WK BEGINNING POST CARCINOGEN DOSE (STUDY DURATION: 36 WK), Strain/Sex: F344/MALE, Target Tissue: Type of Lesion: URINARY BLADDER: CARCINOMA, Dose [Carcinogen]: 0.05% IN DRINKING WATER FOR 4 WK, Promoter: BUTYLATED HYDROXYANISOLE, 25013-16-5","5/15 (33%), 3/15 (20%), 39%, not significant"
same,"tumour outcome (control, treated, inhibition, significance)","Carcinogen: N-BUTYL-N-(4-HYDROXYBUTYL)NITROSAMINE, 3817-11-6, 1% IN DRINKING WATER FOR 31 WK BEGINNING POST CARCINOGEN DOSE (STUDY DURATION: 36 WK), Strain/Sex: F344/MALE, Target Tissue: Type of Lesion: URINARY BLADDER: CARCINOMA, Dose [Carcinogen]: 0.05% IN DRINKING WATER FOR 4 WK, Promoter: SODIUM BICARBONATE, 144-55-8","8/15 (53%), 4/15 (27%), 49%, not significant"
same,"tumour outcome (control, treated, inhibition, significance)","Carcinogen: N-BUTYL-N-(4-HYDROXYBUTYL)NITROSAMINE, 3817-11-6, 1% IN DRINKING WATER FOR 31 WK BEGINNING POST CARCINOGEN DOSE (STUDY DURATION: 36 WK), Strain/Sex: F344/MALE, Target Tissue: Type of Lesion: URINARY BLADDER: PAPILLOMA, Dose [Carcinogen]: 0.05% IN DRINKING WATER FOR 4 WK, Promoter: BUTYLATED HYDROXYANISOLE, 25013-16-5","8/15 (53%), 8/15 (53%), 0%, not significant"
same,"tumour outcome (control, treated, inhibition, significance)","Carcinogen: N-BUTYL-N-(4-HYDROXYBUTYL)NITROSAMINE, 3817-11-6, 1% IN DRINKING WATER FOR 31 WK BEGINNING POST CARCINOGEN DOSE (STUDY DURATION: 36 WK), Strain/Sex: F344/MALE, Target Tissue: Type of Lesion: URINARY BLADDER: PAPILLOMA, Dose [Carcinogen]: 0.05% IN DRINKING WATER FOR 4 WK, Promoter: SODIUM BICARBONATE, 144-55-8","9/15 (60%), 8/15 (53%), 12%, not significant"
